Source: PubChem BioAssay (NCI)
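Step 1: Grow cells in 96-well plates. Step 2: Expose to compound for 48 hours at 5 concentrations. Step 3: Interpolate endpoints linearly; if unreached, use highest concentration. Definition used: TGI = concentration required for complete inhibition of growth.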

Columns and labels:
Experiment in all cases: NCI-60 cell line screen, 48 h
LOX IMVI melanoma = test system: LOX IMVI melanoma
SW-620 colon = test system: SW-620 colon
OVCAR-3 ovarian = test system: OVCAR-3 ovarian
NCI-H522 lung = test system: NCI-H522 lung
SR leukemia = test system: SR leukemia
PC-3 prostate = test system: PC-3 prostate
EKVX NSCLC = test system: EKVX NSCLC
SK-MEL-2 melanoma = test system: SK-MEL-2 melanoma
SF-268 CNS = test system: SF-268 CNS
HT29 colon = test system: HT29 colon
SK-MEL-5 melanoma = test system: SK-MEL-5 melanoma
ACHN renal = test system: ACHN renal
NCI-H460 lung = test system: NCI-H460 lung
IGROV1 ovarian = test system: IGROV1 ovarian
HS 578T breast = test system: HS 578T breast
HCT-116 colon = test system: HCT-116 colon
UACC-257 melanoma = test system: UACC-257 melanoma
HOP-92 NSCLC = test system: HOP-92 NSCLC
DU-145 prostate = test system: DU-145 prostate
OVCAR-8 ovarian = test system: OVCAR-8 ovarian
MALME-3M melanoma = test system: MALME-3M melanoma
NCI/ADR-RES ovarian = test system: NCI/ADR-RES ovarian
786-0 renal = test system: 786-0 renal
SNB-75 CNS = test system: SNB-75 CNS
COLO 205 colon = test system: COLO 205 colon
A549 NSCLC = test system: A549 NSCLC
HOP-62 NSCLC = test system: HOP-62 NSCLC
UACC-62 melanoma = test system: UACC-62 melanoma
MDA-MB-231 breast = test system: MDA-MB-231 breast
MOLT-4 leukemia = test system: MOLT-4 leukemia
SN12C renal = test system: SN12C renal
SF-295 CNS = test system: SF-295 CNS
HCT-15 colon = test system: HCT-15 colon
MDA-N = test system: MDA-N
M14 melanoma = test system: M14 melanoma
SK-OV-3 ovarian = test system: SK-OV-3 ovarian
RPMI-8226 leukemia = test system: RPMI-8226 leukemia
NCI-H23 lung = test system: NCI-H23 lung
U251 CNS = test system: U251 CNS
CAKI-1 renal = test system: CAKI-1 renal
SNB-19 CNS = test system: SNB-19 CNS
MDA-MB-435 = test system: MDA-MB-435
T-47D breast = test system: T-47D breast
UO-31 renal = test system: UO-31 renal
HL-60(TB) leukemia = test system: HL-60(TB) leukemia
SF-539 CNS = test system: SF-539 CNS
A498 renal = test system: A498 renal
MCF7 breast = test system: MCF7 breast
TK-10 renal = test system: TK-10 renal
HCC-2998 colon = test system: HCC-2998 colon
KM12 colon = test system: KM12 colon
OVCAR-4 ovarian = test system: OVCAR-4 ovarian
SK-MEL-28 melanoma = test system: SK-MEL-28 melanoma
CCRF-CEM leukemia = test system: CCRF-CEM leukemia
NCI-H226 lung = test system: NCI-H226 lung
K-562 leukemia = test system: K-562 leukemia
OVCAR-5 ovarian = test system: OVCAR-5 ovarian
RXF 393 renal = test system: RXF 393 renal

CC(C)(C)[Si](C)(C)OCC1OC(n2cc(I)c(N)nc2=O)C(O[Si](C)(C)C(C)(C)C)C1O[Si](C)(C)C(C)(C)C (centres undefined)
TGI (LOX IMVI melanoma): > 100 µM | TGI (SW-620 colon): > 100 µM | TGI (OVCAR-3 ovarian): 24 µM | TGI (NCI-H522 lung): 16.5 µM | TGI (SR leukemia): 81.7 µM | TGI (PC-3 prostate): 25 µM | TGI (EKVX NSCLC): 38.4 µM | TGI (SK-MEL-2 melanoma): 25.7 µM | TGI (SF-268 CNS): 28.8 µM | TGI (HT29 colon): 20.3 µM | TGI (SK-MEL-5 melanoma): 23.2 µM | TGI (ACHN renal): 22 µM | TGI (NCI-H460 lung): 22 µM | TGI (IGROV1 ovarian): 20.6 µM | TGI (HS 578T breast): 36.6 µM | TGI (HCT-116 colon): 24 µM | TGI (UACC-257 melanoma): 26.7 µM | TGI (HOP-92 NSCLC): 37.1 µM | TGI (DU-145 prostate): 28.6 µM | TGI (OVCAR-8 ovarian): 30.6 µM | TGI (MALME-3M melanoma): 34.6 µM | TGI (NCI/ADR-RES ovarian): > 100 µM | TGI (786-0 renal): 9.09 µM | TGI (SNB-75 CNS): 28 µM | TGI (COLO 205 colon): 36.3 µM | TGI (A549 NSCLC): 20.8 µM | TGI (HOP-62 NSCLC): 27.6 µM | TGI (UACC-62 melanoma): 23.7 µM | TGI (MDA-MB-231 breast): 31.7 µM | TGI (MOLT-4 leukemia): 10.6 µM | TGI (SN12C renal): 26.6 µM | TGI (SF-295 CNS): 11.2 µM | TGI (HCT-15 colon): 39.9 µM | TGI (MDA-N): 26.9 µM | TGI (M14 melanoma): 16.9 µM | TGI (SK-OV-3 ovarian): 32.8 µM

c1csc(-c2cc(-c3cccs3)c(-c3ccsc3)s2)c1
TGI (LOX IMVI melanoma): > 100 µM | TGI (SW-620 colon): > 100 µM | TGI (RPMI-8226 leukemia): > 100 µM | TGI (SR leukemia): > 100 µM | TGI (PC-3 prostate): > 100 µM | TGI (NCI-H23 lung): > 100 µM | TGI (EKVX NSCLC): > 100 µM | TGI (U251 CNS): > 100 µM | TGI (SK-MEL-2 melanoma): > 100 µM | TGI (CAKI-1 renal): > 100 µM | TGI (SF-268 CNS): > 100 µM | TGI (HT29 colon): > 100 µM | TGI (SNB-19 CNS): > 100 µM | TGI (MDA-MB-435): > 100 µM | TGI (SK-MEL-5 melanoma): > 100 µM | TGI (ACHN renal): > 100 µM | TGI (NCI-H460 lung): > 100 µM | TGI (IGROV1 ovarian): > 100 µM | TGI (HS 578T breast): > 100 µM | TGI (HCT-116 colon): > 100 µM | TGI (UACC-257 melanoma): > 100 µM | TGI (T-47D breast): > 100 µM | TGI (DU-145 prostate): > 100 µM | TGI (UO-31 renal): > 100 µM | TGI (HL-60(TB) leukemia): > 100 µM | TGI (OVCAR-8 ovarian): > 100 µM | TGI (SF-539 CNS): > 100 µM | TGI (A498 renal): > 100 µM | TGI (MALME-3M melanoma): > 100 µM | TGI (NCI/ADR-RES ovarian): > 100 µM | TGI (MCF7 breast): > 100 µM | TGI (TK-10 renal): > 100 µM | TGI (786-0 renal): > 100 µM | TGI (HCC-2998 colon): > 100 µM | TGI (KM12 colon): > 100 µM | TGI (OVCAR-4 ovarian): > 100 µM | TGI (SNB-75 CNS): > 100 µM | TGI (COLO 205 colon): > 100 µM | TGI (A549 NSCLC): > 100 µM | TGI (SK-MEL-28 melanoma): > 100 µM | TGI (CCRF-CEM leukemia): > 100 µM | TGI (HOP-62 NSCLC): > 100 µM | TGI (UACC-62 melanoma): > 100 µM | TGI (NCI-H226 lung): > 100 µM | TGI (K-562 leukemia): > 100 µM | TGI (MDA-MB-231 breast): > 100 µM | TGI (MOLT-4 leukemia): > 100 µM | TGI (SN12C renal): > 100 µM | TGI (SF-295 CNS): > 100 µM | TGI (HCT-15 colon): > 100 µM | TGI (MDA-N): > 100 µM | TGI (M14 melanoma): > 100 µM | TGI (SK-OV-3 ovarian): > 100 µM

COc1cc(O)c2c(c1)OCC(Cc1ccc(O)cc1)C2=O (centres undefined)
TGI (LOX IMVI melanoma): > 100 µM | TGI (SW-620 colon): > 100 µM | TGI (OVCAR-3 ovarian): > 100 µM | TGI (NCI-H522 lung): > 100 µM | TGI (RPMI-8226 leukemia): > 100 µM | TGI (SR leukemia): > 100 µM | TGI (PC-3 prostate): > 100 µM | TGI (NCI-H23 lung): > 100 µM | TGI (U251 CNS): > 100 µM | TGI (SK-MEL-2 melanoma): > 100 µM | TGI (CAKI-1 renal): > 100 µM | TGI (SF-268 CNS): > 100 µM | TGI (HT29 colon): > 100 µM | TGI (SNB-19 CNS): > 100 µM | TGI (OVCAR-5 ovarian): > 100 µM | TGI (MDA-MB-435): > 100 µM | TGI (SK-MEL-5 melanoma): > 100 µM | TGI (ACHN renal): > 100 µM | TGI (NCI-H460 lung): > 100 µM | TGI (IGROV1 ovarian): > 100 µM | TGI (HS 578T breast): > 100 µM | TGI (HCT-116 colon): > 100 µM | TGI (UACC-257 melanoma): > 100 µM | TGI (HOP-92 NSCLC): > 100 µM | TGI (T-47D breast): > 100 µM | TGI (DU-145 prostate): > 100 µM | TGI (UO-31 renal): > 100 µM | TGI (HL-60(TB) leukemia): > 100 µM | TGI (OVCAR-8 ovarian): > 100 µM | TGI (SF-539 CNS): > 100 µM | TGI (A498 renal): > 100 µM | TGI (MALME-3M melanoma): > 100 µM | TGI (NCI/ADR-RES ovarian): > 100 µM | TGI (TK-10 renal): > 100 µM | TGI (786-0 renal): > 100 µM | TGI (KM12 colon): > 100 µM | TGI (OVCAR-4 ovarian): > 100 µM | TGI (SNB-75 CNS): > 100 µM | TGI (RXF 393 renal): > 100 µM | TGI (COLO 205 colon): > 100 µM | TGI (A549 NSCLC): > 100 µM | TGI (SK-MEL-28 melanoma): > 100 µM | TGI (CCRF-CEM leukemia): > 100 µM | TGI (HOP-62 NSCLC): > 100 µM | TGI (UACC-62 melanoma): > 100 µM | TGI (NCI-H226 lung): > 100 µM | TGI (K-562 leukemia): > 100 µM | TGI (MDA-MB-231 breast): > 100 µM | TGI (MOLT-4 leukemia): > 100 µM | TGI (SN12C renal): > 100 µM | TGI (SF-295 CNS): > 100 µM | TGI (HCT-15 colon): > 100 µM | TGI (MDA-N): > 100 µM | TGI (M14 melanoma): > 100 µM | TGI (SK-OV-3 ovarian): > 100 µM
